Experimental data taken from PubChem BioAssay (NCI).
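Step 1: Grow cells in 96-well plates. Step 2: Expose to compound for 48 hours at 5 concentrations. Step 3: Interpolate endpoints linearly; if unreached, use highest concentration. GI50: concentration for 50% inhibition of growth. TGI denotes the concentration required for complete inhibition of growth.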

What was measured:
Assay in all cases: NCI anticancer screen, dose series, 48 h
SF-268 CNS = test system: SF-268 CNS
DU-145 prostate = test system: DU-145 prostate
MOLT-4 leukemia = test system: MOLT-4 leukemia
SF-295 CNS = test system: SF-295 CNS
A498 renal = test system: A498 renal
M14 melanoma = test system: M14 melanoma
CAKI-1 renal = test system: CAKI-1 renal
NCI-H23 lung = test system: NCI-H23 lung
SK-MEL-5 melanoma = test system: SK-MEL-5 melanoma
RPMI-8226 leukemia = test system: RPMI-8226 leukemia
OVCAR-3 ovarian = test system: OVCAR-3 ovarian
MDA-N = test system: MDA-N
EKVX NSCLC = test system: EKVX NSCLC
T-47D breast = test system: T-47D breast
K-562 leukemia = test system: K-562 leukemia
SNB-75 CNS = test system: SNB-75 CNS
KM12 colon = test system: KM12 colon
ACHN renal = test system: ACHN renal
SNB-19 CNS = test system: SNB-19 CNS
SN12C renal = test system: SN12C renal
SK-MEL-28 melanoma = test system: SK-MEL-28 melanoma
NCI/ADR-RES ovarian = test system: NCI/ADR-RES ovarian
786-0 renal = test system: 786-0 renal
MCF7 breast = test system: MCF7 breast
CCRF-CEM leukemia = test system: CCRF-CEM leukemia
COLO 205 colon = test system: COLO 205 colon
MDA-MB-231 breast = test system: MDA-MB-231 breast
PC-3 prostate = test system: PC-3 prostate
NCI-H460 lung = test system: NCI-H460 lung
UACC-62 melanoma = test system: UACC-62 melanoma
IGROV1 ovarian = test system: IGROV1 ovarian
HCT-15 colon = test system: HCT-15 colon
OVCAR-8 ovarian = test system: OVCAR-8 ovarian
SK-OV-3 ovarian = test system: SK-OV-3 ovarian
U251 CNS = test system: U251 CNS
A549 NSCLC = test system: A549 NSCLC
HCC-2998 colon = test system: HCC-2998 colon
NCI-H522 lung = test system: NCI-H522 lung
HL-60(TB) leukemia = test system: HL-60(TB) leukemia
SK-MEL-2 melanoma = test system: SK-MEL-2 melanoma
HS 578T breast = test system: HS 578T breast
MDA-MB-435 = test system: MDA-MB-435
OVCAR-4 ovarian = test system: OVCAR-4 ovarian
RXF 393 renal = test system: RXF 393 renal
MALME-3M melanoma = test system: MALME-3M melanoma
BT-549 breast = test system: BT-549 breast
HOP-62 NSCLC = test system: HOP-62 NSCLC
SF-539 CNS = test system: SF-539 CNS
LOX IMVI melanoma = test system: LOX IMVI melanoma
HT29 colon = test system: HT29 colon
HOP-92 NSCLC = test system: HOP-92 NSCLC
SW-620 colon = test system: SW-620 colon
OVCAR-5 ovarian = test system: OVCAR-5 ovarian
HCT-116 colon = test system: HCT-116 colon
NCI-H226 lung = test system: NCI-H226 lung
UACC-257 melanoma = test system: UACC-257 melanoma

Work on `Cc1cc2c3c(nc4ccccc42)C(=O)c2cccnc2-c3n1` yielded a GI50 (SF-268 CNS) of 786 nM, a TGI (SF-268 CNS) greater than 19900 nM and a GI50 (DU-145 prostate) of 300 nM. It also gave a TGI (DU-145 prostate) of 1480 nM, a GI50 (MOLT-4 leukemia) of 470 nM and a TGI (MOLT-4 leukemia) of 5690 nM. The GI50 (SF-295 CNS) was 541 nM, the TGI (SF-295 CNS) was 1910 nM and the GI50 (A498 renal) was 966 nM. For the same compound, the TGI (A498 renal) was 4120 nM, the GI50 (M14 melanoma) was 479 nM and the GI50 (CAKI-1 renal) was 404 nM. It also gave a TGI (CAKI-1 renal) of 2670 nM, a GI50 (NCI-H23 lung) of 142 nM and a TGI (NCI-H23 lung) of 466 nM. The GI50 (SK-MEL-5 melanoma) was 80.8 nM, the TGI (SK-MEL-5 melanoma) was 354 nM and the GI50 (RPMI-8226 leukemia) was 99 nM. The TGI (RPMI-8226 leukemia) was 460 nM, the TGI (OVCAR-3 ovarian) was 26.3 nM and the GI50 (MDA-N) was 152 nM. The TGI (MDA-N) was 294 nM, the GI50 (EKVX NSCLC) was 707 nM and the TGI (EKVX NSCLC) was 2490 nM. The GI50 (T-47D breast) was 749 nM, the TGI (T-47D breast) was 4130 nM and the GI50 (K-562 leukemia) was 109 nM. For the same compound, the TGI (K-562 leukemia) was 345 nM, the GI50 (SNB-75 CNS) was 833 nM and the TGI (SNB-75 CNS) was 3090 nM. The GI50 (KM12 colon) was 142 nM, the TGI (KM12 colon) was 529 nM and the GI50 (ACHN renal) was 32.7 nM. The TGI (ACHN renal) was 1450 nM, the GI50 (SNB-19 CNS) was 255 nM and the TGI (SNB-19 CNS) was 1660 nM. The GI50 (SN12C renal) was 146 nM, the TGI (SN12C renal) was 1820 nM and the GI50 (SK-MEL-28 melanoma) was 976 nM. It also gave a TGI (SK-MEL-28 melanoma) of 2680 nM, a GI50 (NCI/ADR-RES ovarian) of 489 nM and a GI50 (786-0 renal) of 148 nM. The TGI (786-0 renal) was 823 nM, the GI50 (MCF7 breast) was 21.2 nM and the TGI (MCF7 breast) was 156 nM. It also gave a GI50 (CCRF-CEM leukemia) of 171 nM, a TGI (CCRF-CEM leukemia) of 1400 nM and a GI50 (COLO 205 colon) of 1130 nM. It also gave a TGI (COLO 205 colon) of 2450 nM, a GI50 (MDA-MB-231 breast) of 644 nM and a TGI (MDA-MB-231 breast) of 5560 nM. The GI50 (PC-3 prostate) was 304 nM, the TGI (PC-3 prostate) was 3040 nM and the GI50 (NCI-H460 lung) was 162 nM. It also gave a TGI (NCI-H460 lung) of 1060 nM, a GI50 (UACC-62 melanoma) of 284 nM and a TGI (UACC-62 melanoma) of 936 nM. For the same compound, the GI50 (IGROV1 ovarian) was 65.8 nM, the TGI (IGROV1 ovarian) was 383 nM and the GI50 (HCT-15 colon) was 15 nM. For the same compound, the TGI (HCT-15 colon) was 162 nM, the GI50 (OVCAR-8 ovarian) was 453 nM and the GI50 (SK-OV-3 ovarian) was 250 nM. For the same compound, the TGI (SK-OV-3 ovarian) was 1070 nM, the GI50 (U251 CNS) was 413 nM and the TGI (U251 CNS) was 6930 nM. It also gave a GI50 (A549 NSCLC) of 372 nM, a TGI (A549 NSCLC) of 1840 nM and a GI50 (HCC-2998 colon) of 311 nM. For the same compound, the TGI (HCC-2998 colon) was 1260 nM, the GI50 (NCI-H522 lung) was 40 nM and the TGI (NCI-H522 lung) was 315 nM. For the same compound, the GI50 (HL-60(TB) leukemia) was 135 nM, the TGI (HL-60(TB) leukemia) was 1360 nM and the GI50 (SK-MEL-2 melanoma) was 1480 nM. It also gave a TGI (SK-MEL-2 melanoma) of 3820 nM, a GI50 (HS 578T breast) of 1690 nM and a TGI (HS 578T breast) greater than 21900 nM. It also gave a GI50 (MDA-MB-435) of 162 nM, a TGI (MDA-MB-435) of 332 nM and a GI50 (OVCAR-4 ovarian) of 1280 nM. It also gave a TGI (OVCAR-4 ovarian) of 4270 nM, a GI50 (RXF 393 renal) of 1170 nM and a TGI (RXF 393 renal) of 3190 nM. For the same compound, the GI50 (MALME-3M melanoma) was 426 nM, the TGI (MALME-3M melanoma) was 1390 nM and the GI50 (BT-549 breast) was 1150 nM. For the same compound, the TGI (BT-549 breast) was 2410 nM, the GI50 (HOP-62 NSCLC) was 316 nM and the TGI (HOP-62 NSCLC) was 2230 nM. It also gave a GI50 (SF-539 CNS) of 495 nM, a TGI (SF-539 CNS) of 2210 nM and a GI50 (LOX IMVI melanoma) of 144 nM. For the same compound, the TGI (LOX IMVI melanoma) was 524 nM, the GI50 (HT29 colon) was 663 nM and the TGI (HT29 colon) was 2030 nM. For the same compound, the GI50 (HOP-92 NSCLC) was 941 nM, the TGI (HOP-92 NSCLC) was 8520 nM and the GI50 (SW-620 colon) was 170 nM. The TGI (SW-620 colon) was 1010 nM, the GI50 (OVCAR-5 ovarian) was 1090 nM and the TGI (OVCAR-5 ovarian) was 2330 nM. It also gave a GI50 (HCT-116 colon) of less than 41.6 nM, a TGI (HCT-116 colon) of 110 nM and a GI50 (NCI-H226 lung) of 942 nM. The TGI (NCI-H226 lung) was 3260 nM, the GI50 (UACC-257 melanoma) was 169 nM and the TGI (UACC-257 melanoma) was 550 nM.
